From BindingDB's records for patent US20240270732 (Chengdu Biobel Biotechnology Co., 2024)

Molecular target: T1, Receptor-interacting serine/threonine-protein kinase 1 (Homo sapiens, UniProt Q13546)
T1 sequence (Q13546 whole entry): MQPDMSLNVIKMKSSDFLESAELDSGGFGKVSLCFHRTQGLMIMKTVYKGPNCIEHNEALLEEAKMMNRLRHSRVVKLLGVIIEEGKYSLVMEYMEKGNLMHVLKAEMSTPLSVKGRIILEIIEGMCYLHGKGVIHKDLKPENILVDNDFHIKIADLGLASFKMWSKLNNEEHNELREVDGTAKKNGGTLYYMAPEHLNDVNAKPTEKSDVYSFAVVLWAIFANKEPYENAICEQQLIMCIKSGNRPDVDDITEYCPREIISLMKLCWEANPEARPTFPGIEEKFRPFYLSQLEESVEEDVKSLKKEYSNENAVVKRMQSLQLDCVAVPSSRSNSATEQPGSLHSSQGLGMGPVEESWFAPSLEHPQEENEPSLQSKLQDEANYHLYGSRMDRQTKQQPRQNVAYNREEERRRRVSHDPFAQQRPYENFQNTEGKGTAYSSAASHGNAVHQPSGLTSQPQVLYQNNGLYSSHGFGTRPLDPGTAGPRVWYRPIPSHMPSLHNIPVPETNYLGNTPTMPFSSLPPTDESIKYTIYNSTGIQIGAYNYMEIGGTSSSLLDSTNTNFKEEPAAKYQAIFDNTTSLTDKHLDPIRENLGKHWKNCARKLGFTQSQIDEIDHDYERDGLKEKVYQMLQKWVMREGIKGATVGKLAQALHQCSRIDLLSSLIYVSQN
Assay: Inhibitory Activity Assay
Method: The compound of the present invention and the control compound were dissolved in the assay buffer (50 mM Hepes pH 7.5, 50 mM NaCl, 30 mM MgCl2, 1 mM DTT, 0.02% CHAPS, 0.5 mg/mL BSA), and diluted in a ratio of 1:1.5 using a 22-point titration (high concentration 2 μM), and then added to a 384-well plate. […] After completion of the reaction, 5 μL of ADP-Glo reagent containing 0.02% CHAPS was added to each well and incubated at room temperature for 1 h to terminate the kinase reaction and use up all remaining ATP. Then, 5 μL of ADP-Glo detection solution containing 0.02% CHAPS was added to each well and incubated at room temperature for 30 min to measure the emittance intensity.

Row | IC50 [nM] | Compound
1 | 14.3 | C[C@H]1Oc2ccc(C#CCN3CCN(CC#Cc4ccc5c(c4)N(C)C(=O)[C@@H](NC(=O)c4nnc(Cc6ccccc6)o4)[C@@H](C)O5)CC3)cc2N(C)C(=O)[C@H]1NC(=O)c1nnc(Cc2ccccc2)o1 [US20240270732, Compound I-50]
2 | 16 | C[C@H]1Oc2ccc(C#CCN3CCN(CC#Cc4ccc5c(c4)N(C)C(=O)[C@@H](NC(=O)c4n[nH]c(Cc6cccnc6)n4)[C@@H](C)O5)CC3)cc2N(C)C(=O)[C@H]1NC(=O)c1n[nH]c(Cc2cccnc2)n1 [US20240270732, Compound I-68]
3 | 6.63 | C#CCOCCOCCOCCOCCOCC#Cc1ccc2c(c1)N(C)C(=O)[C@@H](NC(=O)c1ncn(Cc3ccccc3)n1)CO2 [US20240270732, Compound I-85-2]
4 | 4.68 | CN1C(=O)[C@@H](NC(=O)c2cn(Cc3ccccc3)cn2)COc2ccc(C#CCN3CCN(CC#Cc4ccc5c(c4)N(C)C(=O)[C@@H](NC(=O)c4ncn(Cc6ccccc6)n4)CO5)CC3)cc21 [US20240270732, Compound I-34]
5 | 3.18 | C[C@H]1Oc2ccc(CCCN3CCN(CCCc4ccc5c(c4)N(C)C(=O)[C@@H](NC(=O)c4ncn(Cc6ccccc6)n4)[C@@H](C)O5)CC3)cc2N(C)C(=O)[C@H]1NC(=O)c1ncn(Cc2ccccc2)n1 [US20240270732, Compound I-122]
6 | 17 | CN(CCCC#Cc1ccc2c(c1)N(C)C(=O)[C@@H](NC(=O)c1ncn(Cc3ccccc3)n1)CO2)CCCC#Cc1ccc2c(c1)N(C)C(=O)[C@@H](NC(=O)c1ncn(Cc3ccccc3)n1)CO2 [US20240270732, Compound I-98]
7 | 8.99 | C[C@H]1Oc2ccc(C#CCOCCOCCOCCOCCOCC#Cc3ccc4c(c3)N(C)C(=O)[C@@H](NC(=O)c3ncn(Cc5ccccc5)n3)[C@@H](C)O4)cc2N(C)C(=O)[C@H]1NC(=O)c1ncn(Cc2ccccc2)n1 [US20240270732, Compound I-84-1]
8 | 13.3 | C[C@H]1Oc2ccc(C#CCN3CCN(CC#Cc4ccc5c(c4)N(C)C(=O)[C@@H](NC(=O)c4noc(Cc6ccccc6)n4)[C@@H](C)O5)CC3)cc2N(C)C(=O)[C@H]1NC(=O)c1noc(Cc2ccccc2)n1 [US20240270732, Compound I-52]
9 | 6.16 | CN1C(=O)[C@@H](NC(=O)c2nnn(Cc3ccccc3)n2)COc2ccc(C#CCN3CCN(CC#Cc4ccc5c(c4)N(C)C(=O)[C@@H](NC(=O)c4nnn(Cc6ccccc6)n4)CO5)CC3)cc21 [US20240270732, Compound I-58]
10 | 9.81 | C#Cc1ccc2c(c1)N(C)C(=O)[C@@H](NC(=O)c1nc(Cc3ccccc3)n[nH]1)[C@@H](C)O2 [US20240270732, Compound I-119]
11 | 19.8 | C[C@H]1Oc2ccc(C#CCCCN(C)CCCC#Cc3ccc4c(c3)N(C)C(=O)[C@@H](NC(=O)c3n[nH]c(Cc5ccccc5)n3)[C@@H](C)O4)cc2N(C)C(=O)[C@H]1NC(=O)c1n[nH]c(Cc2ccccc2)n1 [US20240270732, Compound I-95]
12 | 2.75 | C[C@H]1Oc2ccc(C#CCN3CCN(CC#Cc4ccc5c(c4)N(C)C(=O)[C@@H](NC(=O)c4n[nH]c(Cc6ccccc6)n4)CO5)CC3)cc2N(C)C(=O)[C@H]1NC(=O)c1ncn(Cc2ccccc2)n1 [US20240270732, Compound I-12]
13 | 3.08 | CN1C(=O)[C@@H](NC(=O)c2ncn(Cc3ccccc3)n2)COc2ccc(C#CCN3CCN(CC#Cc4ccc5c(c4)N(C)C(=O)[C@@H](NC(=O)c4ncn(Cc6ccccc6)n4)CO5)CC3)cc21 [US20240270732, Compound I-32]
14 | 62.2 | C[C@@H]1Oc2ccc(C#CCN3CCN(CC#Cc4ccc5c(c4)N(C)C(=O)[C@@H](NC(=O)c4cn(Cc6ccccc6)cn4)[C@H](C)O5)CC3)cc2N(C)C(=O)[C@H]1NC(=O)c1cn(Cc2ccccc2)cn1 [US20240270732, Compound I-64]
15 | 5.03 | O=C(N[C@H]1COc2ccc(C#CCN3CCN(CC#Cc4ccc5c(c4)NC(=O)[C@@H](NC(=O)c4ncn(Cc6ccccc6)n4)CO5)CC3)cc2NC1=O)c1ncn(Cc2ccccc2)n1 [US20240270732, Compound I-42]
16 | 20.5 | C[C@H]1Oc2ccc(C#CCCCCC(=O)O)cc2N(C)C(=O)[C@H]1NC(=O)c1ncn(Cc2ccccc2)n1 [US20240270732, Compound I-108]
17 | 9.35 | C[C@H]1Oc2ccc(C#Cc3cccc(S(=O)(=O)O)c3)cc2N(C)C(=O)[C@H]1NC(=O)c1n[nH]c(Cc2ccccc2)n1 [US20240270732, Compound I-113]

Row | Compound | IC50 [nM]
18 | C#CCN1CCN(CC#Cc2ccc3c(c2)N(C)C(=O)[C@@H](NC(=O)c2ncn(Cc4ccccc4)n2)[C@@H](C)O3)CC1 [US20240270732, Compound I-37] | 4.17
19 | C[C@H]1Oc2ccc(C#CCN3CCN(CC#Cc4ccc5c(c4)N(C)C(=O)[C@@H](NC(=O)c4ncn(Cc6ccccc6)n4)[C@@H](C)O5)CC3)cc2N(C)C(=O)[C@H]1NC(=O)c1ncn(Cc2ccccc2)n1 [US20240270732, Compound I-23] | 4.66
20 | C#CCN1CCN(CC#Cc2ccc3c(c2)N(C)C(=O)[C@@H](NC(=O)c2nnn(Cc4ccccc4)n2)CO3)CC1 [US20240270732, Compound I-57] | 8.09
21 | C[C@H]1Oc2ccc(C#CCN3CCN(CC#Cc4ccc5c(c4)NC(=O)[C@@H](NC(=O)c4n[nH]c(Cc6ccccc6)n4)[C@@H](C)O5)CC3)cc2NC(=O)[C@H]1NC(=O)c1n[nH]c(Cc2ccccc2)n1 [US20240270732, Compound I-17] | 3.56
22 | C#CCN1CCN(CC#Cc2ccc3c(c2)N(C)C(=O)[C@@H](NC(=O)c2ncn(Cc4cccc(O)c4)n2)[C@@H](C)O3)CC1 [US20240270732, Compound I-75] | 21
23 | C#CCN1CCN(CC#Cc2ccc3c(c2)N(C)C(=O)[C@@H](NC(=O)c2n[nH]c(Cc4cccc(O)c4)n2)[C@@H](C)O3)CC1 [US20240270732, Compound I-69] | 19.4
24 | C[C@H]1Oc2ccc(C#CCN3CCN(CC#Cc4ccc5c(c4)N(C)C(=O)[C@@H](NC(=O)c4ncn(Cc6ccccc6)n4)[C@@H](C)O5)CC3)cc2N(C)C(=O)[C@H]1NC(=O)c1cn(Cc2ccccc2)cn1 [US20240270732, Compound I-27] | 4
25 | C#CCN1CCN(CC#Cc2ccc3c(c2)N(C)C(=O)[C@@H](NC(=O)c2ncn(Cc4cccnc4)n2)[C@@H](C)O3)CC1 [US20240270732, Compound I-73] | 19.1
26 | C[C@H]1Oc2ccc(C#CCN3CCN(CC#Cc4ccc5c(c4)N(C)C(=O)[C@@H](NC(=O)c4ncn(Cc6ccccc6)n4)CO5)CC3)cc2N(C)C(=O)[C@H]1NC(=O)c1n[nH]c(Cc2ccccc2)n1 [US20240270732, Compound I-5] | 3.35
27 | C[C@H]1Oc2ccc(C#CCN3CCN(CC#Cc4ccc5c(c4)N(C)C(=O)[C@@H](NC(=O)c4nnn(Cc6ccccc6)n4)CO5)CC3)cc2N(C)C(=O)[C@H]1NC(=O)c1ncn(Cc2ccccc2)n1 [US20240270732, Compound I-26] | 3.73
28 | C[C@H]1Oc2ccc(C#CCN3CCN(CC#Cc4ccc5c(c4)N(C)C(=O)[C@@H](NC(=O)c4nnn(Cc6ccccc6)n4)[C@@H](C)O5)CC3)cc2N(C)C(=O)[C@H]1NC(=O)c1ncn(Cc2ccccc2)n1 [US20240270732, Compound I-25] | 3.39
29 | C[C@H]1Oc2ccc(C#CCN3CCN(CC#Cc4ccc5c(c4)N(C)C(=O)[C@@H](NC(=O)c4ncn(Cc6ccccc6)n4)[C@@H](C)O5)CC3)cc2N(C)C(=O)[C@H]1NC(=O)c1n[nH]c(Cc2ccccc2)n1 [US20240270732, Compound I-4] | 6.68
30 | C#CCN1CCN(CC#Cc2ccc3c(c2)N(C)C(=O)[C@@H](NC(=O)c2n[nH]c(Cc4cccnc4)n2)[C@@H](C)O3)CC1 [US20240270732, Compound I-67] | 14.6
